Laboratory results as given in patent US10888553B2, “Use of non-transition metal coordinated dipyridoxyl compounds to prevent and treat chemotherapy-induced PSN” (KARLSSON-TUNER INVEST AS, priority 2016, dated 2021).
Read-outs that look alike come from different tables or passages of the source.

Assays:
[1] = relative to mangafodipir; cited from earlier work
[2] = in vivo; cited from earlier work
[3] = patients, single dose, over a 5-day period; cited from earlier work
CT26 colon cancer cells = conditions: cited from earlier work
[4] = Mn^2+ binding to fodipir; cited from earlier work
[5] = Zn^2+ binding to fodipir; cited from earlier work
[6] = Platinum (Pt) urine excretion in rats receiving oxaliplatin i.v. after i.v. mangafodipir, fodipir or saline (Example 2); type: in vivo, Wistar rats; conditions: 0-24 h urine; for recovery of oxaliplatin-derived Pt in urine, % of the administered dose: 26.4 μmol/kg i.v. 5 min before oxaliplatin 2 mg/kg i.v., administered Pt 277.5 μg, saline control 31.3%; for increase in Pt-excretion: versus saline control
Protocol: 2 male Wistar rats (approximately 250 g) were injected i.v., via one of the tail veins, with 0.25 ml mangafodipir (20 mg/kg; Lot no. 303001, Nycomed Imaging AS) or fodipir (17.4 mg/kg; Lot no. PKJ 1285/113-14, Nycomed Imaging AS), each corresponding to 26.4 μmol/kg. Another control rat received saline instead of mangafodipir or fodipir. […] The rats were then immediately placed in metabolic cages for urine collection over a period of 0-24 hours. The urine samples were thereafter stored at −80° C. until Pt analysis. Before analysis, the samples were thawed and extensively shaken to obtain homogenous samples. A five ml aliquot was taken from each sample and 5 ml concentrated nitric acid was added. The samples were then resolved in a microwave oven and thereafter diluted with distilled water. The Pt content of each sample was analyzed by ICP-MS (Inductively Coupled Plasma Mass Spectrometry). […] This sample was treated in an identical manner to that of the urine samples and analyzed for its Pt content. Results are presented as total 0-24 h urine Pt content, expressed as the total amount, as well as, as percentage of the injected dose.

[7] = Ca^2+ binding to fodipir; cited from earlier work
[8] = cited from earlier work; for Mn^2+ content released from fodipir or its metabolites: intravenous, MRI dose 5-10 μmol/kg
[9] = 10 μmol/kg mangafodipir in 14 of 15 cycles, accumulated dose 140 μmol/kg; patient showed PD-like neurological symptoms; cited from earlier work
[10] = cited from earlier work

Compound: Cc1ncc(COP(=O)([O-])O)c(CN(CCN(CC(=O)O)Cc2c(COP(=O)([O-])O)cnc(C)c2O)CC(=O)O)c1O.Cc1ncc(COP(=O)([O-])O)c(CN(CCN(CC(=O)O)Cc2c(COP(=O)([O-])O)cnc(C)c2O)CC(=O)O)c1O.Cc1ncc(COP(=O)([O-])O)c(CN(CCN(CC(=O)O)Cc2c(COP(=O)([O-])O)cnc(C)c2O)CC(=O)O)c1O.Cc1ncc(COP(=O)([O-])O)c(CN(CCN(CC(=O)O)Cc2c(COP(=O)([O-])O)cnc(C)c2O)CC(=O)O)c1O.Cc1ncc(COP(=O)([O-])O)c(CN(CCN(CC(=O)O)Cc2c(COP(=O)([O-])O)cnc(C)c2O)CC(=O)O)c1O.[Ca+2].[Ca+2].[Ca+2].[Ca+2].[Mn+2] [calmangafodipir]
- manganese retention (and brain retention) reduced to [1]: about 50%

Compound: O=C(O)C(=O)O.[NH-][C@@H]1CCCC[C@H]1[NH-].[Pt+2] [oxaliplatin]
- terminal Pt half-life in red blood cells (RBC) [2]: about 50 days
- volume of distribution [2]: about 600 litres
- Pt dose excreted in feces [3]: 2.1%
- Pt dose excreted in the urine [3]: 53.8%
- killing of CT26 cells by oxaliplatin (CT26 colon cancer cells; oxaliplatin alone): killed CT26 cells in a concentration-dependent manner

Compound: Cc1ncc(COP(=O)(O)O)c(CN(CCN(CC(=O)O)Cc2c(COP(=O)(O)O)cnc(C)c2O)CC(=O)O)c1O [fodipir, N,N′-bis-(pyridoxyl-5-phosphate)-ethylenediamine-N,N′-diacetic acid]
- log formation constant (log KML) [4]: 15
- log formation constant (log KML) [5]: 18
- recovery of oxaliplatin-derived Pt in urine, % of the administered dose [6]: 43.4%
- increase in Pt-excretion [6]: 40.6%
- effect of fodipir on cell killing in the lower concentration range of oxaliplatin (CT26 colon cancer cells; fodipir 10 μM): additive effect
- cell killing activity of fodipir towards CT26 colon cancer cells (CT26 colon cancer cells; fodipir 100 μM alone): almost complete cell killing activity
- interference of fodipir with the cancer cell killing ability of oxaliplatin (CT26 colon cancer cells; fodipir 10, 30, 100 μM): Neither 10, 30, nor 100 μM fodipir interfered negatively
- log formation constant (log KML) [7]: 9

Compound: mangafodipir
- Mn^2+ that stays bound ([8]; MRI dose 5-10 μmol/kg injected): 20%
- Mn^2+ content released from fodipir or its metabolites [8]: About 80%
- Mn^2+ content released from fodipir or its metabolites ([8]; listed as Mangafodipir): about 80%
- recovery of oxaliplatin-derived Pt in urine, % of the administered dose [6]: 33.8%
- increase in Pt-excretion [6]: 8.0%
- brain MRI finding [9]: increased T1-weighted signal intensity in the basal ganglia
- mean plasma Mn content ([10]; after eight cycles with 5 μmol/kg mangafodipir co-treatment (accumulated 40 μmol/kg), before 11.8±5.5 nM): 19.8 ± 4.3 nM
- pre-existing oxaliplatin-induced PSN after combined oxaliplatin and mangafodipir treatment ([10]; patients with PSN grade 2 or worse on a 1-3 scale): improved
